According to US20200032350A1, “COMPANION DIAGNOSTICS FOR LEUKEMIA TREATMENT” (JOHANN WOLFGANG GOETHE-UNIVERSITÄT FRANKFURT AM MAIN, priority 2017, published 2020):

Experiments:
H cells [1] = test: colony formation and replating assay; type: cell-based, mouse
Description: (§1) To elucidate the molecular mechanisms underlying Meis1's contribution to leukemogenesis, a retroviral transplantation model was employed in which lineage-depleted mouse bone marrow cells were transduced with an MSCV-Hoxa9-PGK-neo construct, alone or in combination with an MSCV-Meis1-IRES-YFP construct that induced a 22-fold overexpression of Meis1. As reported by previously, the transformed cells could be cultured in vitro in the presence of IL3/IL6/SCF and expressed the expected immunophenotype characterized by the myeloid markers Mac-1 and Gr-1 as well as c-Kit (Pineault et al., 2005; Wang et al., 2005). When transplanted into irradiated recipient mice, cells transduced with Hoxa9 (H) or Hoxa9/Meis1 (H/M) gave rise to leukemia resulting in a median overall survival of 114 days and 41 days, respectively (p<0.001; FIG. 1A). This difference in survival is in accordance with previously published results and reflects the aggressiveness of Hoxa9/Meis1-driven AML observed in patients (Kroon et al., 1998).
(§2) The inventors next sought to characterize the functional consequences of Syk overexpression in the context of Hoxa9-driven leukemias. For this purpose, the consequences of a lentiviral overexpression of human SYK (hSYK) in H cells in vitro and in vivo were examined. […] While Hoxa9 alone is sufficient to enable replating, both Meis1 and hSYK enhanced replating efficiency.

H/S cells = test: colony formation and replating assay; type: cell-based, mouse
Description: as §2

H cells [2] = test: time-lapse microscopy and single-cell tracking; type: cell-based, mouse; conditions: compared with DMSO-treated cells, tracked over more than 50 hours
Experimental: (§3) The effect of Syk inhibition in H and H/M cells was further examined by monitoring the fate of individual cells and their progeny by time-lapse microscopy and single-cell tracking (Rieger et al., 2009). This allowed to track hundreds of H and H/M cells over more than 50 hours in real time and to record their history across cell generations. […] In addition, the inventors knocked down Syk in vivo by transplanting mice with cells that were either transduced with the doxycycline-inducible lentiviral Syk shRNAs or with control shRNAs and treating them with doxycycline for 43 days. Knockdown of Syk prolonged the survival of mice transplanted with H/M cells from a median time of 40.5 days in controls to a median of 103 days (p<0.001) (FIGS. 7C and 7D). Furthermore, mice transplanted with H/M or H cells were treated with the oral Syk inhibitor R788, a prodrug of R406.

H/M cells [3] = test: time-lapse microscopy and single-cell tracking; type: cell-based, mouse; conditions: compared with DMSO-treated cells, tracked over more than 50 hours
Experimental: as §3

[4] = tested on: CD34+ progenitor cells isolated from healthy donors; test: relative viability of CD34+ bone marrow cells from healthy donors; type: cell-based, human
Experimental: Cells were treated for 24 h and DMSO was used as a control. (J) Relative viability of CD34+ bone marrow cells from healthy donors.

H/M cells [5] = test: colony formation and replating assay; type: cell-based, mouse
Description: as §1
The inventors next sought to characterize the functional consequences of Syk overexpression in the context of Hoxa9-driven leukemias. […]
To test whether the enhanced Syk signaling observed in H/M cells could be exploited therapeutically, the effects of Syk inhibitors and of an shRNA-mediated knockdown of Syk in H/M cells, in vitro and in vivo were analyzed.

H/M cells [6] = test: treatment of mice transplanted with H/M cells; type: in vivo
Description: (§4) FIG. 7. Meis1 sensitizes Hoxa9-driven leukemia to Syk inhibition. (A) SYK protein expression in H/M cells transfected with either a control shRNA (GL2) or two shRNAs targeting SYK. Actin was used as loading control for relative protein quantification. (B) Percentage of BFP-positive shRNA-expressing cells relative to BFP-negative shRNA-negative cells at the times indicated (mean±SD, normalized to day 0). (C) Same as (A), before and after five days of doxycycline (dox) treatment in vivo. (D) Kaplan-Meier survival curves of mice transplanted with H/M cells and treated with doxycycline for 43 days to express non-specific control and Syk-specific shRNA (n=8). p-value is from a Mantel-Cox test. (E) Percentage of YFP-positive cells from peripheral blood of mice transplanted with H (left) or H/M (right) cells after treating for 7 days with R788 or placebo. Measurements were taken at the indicated time points. The black line connects median values. (F) Kaplan-Meier survival curves of mice transplanted with either H or H/M cells and treated for 20 days with R788 or placebo (n=11). p-value is from a Mantel-Cox test. (G) Relative HOXA9 and MEIS1 mRNA expression in MV4-11 and KG1 cell lines, and in patient-derived AML cells as measured by qPCR, normalized to GAPDH expression (mean±SD, n=3). […] Actin was used as loading control for relative protein quantification. avg, average. […]

H cells [7] = test: treatment of mice transplanted with H cells; type: in vivo
Description: as §4

Compound | colony formation and replating efficiency (H cells [1]) | replating efficiency (H/S cells) | cell death (H cells [2]) | cell death (H/M cells [3]) | viability [4] | colony formation potential and replating efficiency (H/M cells [5]) | replating efficiency (H/M cells [5]) | reduction of the percentage of leukemic cells (H/M cells [6]; seven days of treatment, oral, peripheral blood YFP-positive cells, on average) | median survival (H/M cells [6]; treatment for 20 days, placebo median 38 days, p<0.001) [days] | level of H cells (percentage of leukemic cells) (H cells [7]; seven days of treatment, oral) | survival (H cells [7]; treatment for 20 days)
COc1cc(Nc2ncc(F)c(Nc3ccc4c(n3)NC(=O)C(C)(C)O4)n2)cc(OC)c1OC [R406] | moderately affecting | decreased replating efficiency | not significantly affected | significant increase in cell death | did not affect the viability | significantly reduced | decreased replating efficiency |  |  |  | 
COc1cc(Nc2ncc(F)c(Nc3ccc4c(n3)N(COP(=O)(O)O)C(=O)C(C)(C)O4)n2)cc(OC)c1OC [R788, fostamatinib] |  |  |  |  |  |  |  | more than 70% | 130 | barely affecting | No significant effect
